Measured values: the kinase profiling compilation of Christmann-Franck et al. (2016)

Experiments:
Assay in all cases: KINOMEscan competition binding
Conditions in all cases: compound 10.0 µM
[1] = molecular target: ACVR1B (human) (UniProt P36896)
[2] = molecular target: ADCK4 (human) (UniProt Q96D53)
[3] = molecular target: AURKA (human) (UniProt O14965)
[4] = molecular target: CDK16 (human) (UniProt Q00536)
[5] = molecular target: CDK7 (human) (UniProt P50613)
[6] = molecular target: CLK1 (human) (UniProt P49759)
[7] = molecular target: CLK3 (human) (UniProt P49761)
[8] = molecular target: CSNK1E (human) (UniProt P49674)
[9] = molecular target: DCLK1 (human) (UniProt O15075)
[10] = molecular target: DDR2 (human) (UniProt Q16832)
[11] = molecular target: EPHA2 (human) (UniProt P29317)
[12] = molecular target: EPHA3 (human) (UniProt P29320)
[13] = molecular target: EPHB1 (human) (UniProt P54762)
[14] = molecular target: ERBB2 (human) (UniProt P04626)
[15] = molecular target: FER (human) (UniProt P16591)
[16] = molecular target: FGFR2 (human) (UniProt P21802)
[17] = molecular target: FLT4 (human) (UniProt P35916)
[18] = system: KIT (human), P10721 [V559D]
[19] = molecular target: MAP4K2 (human) (UniProt Q12851)
[20] = molecular target: MAPK7 (human) (UniProt Q13164)
[21] = molecular target: MAPK8 (human) (UniProt P45983)
[22] = molecular target: MKNK2 (human) (UniProt Q9HBH9)
[23] = molecular target: MST1R (human) (UniProt Q04912)
[24] = molecular target: MUSK (human) (UniProt O15146)
[25] = molecular target: PDPK1 (human) (UniProt O15530)
[26] = molecular target: PLK3 (human) (UniProt Q9H4B4)
[27] = molecular target: PRKAA2 (human) (UniProt P54646)
[28] = molecular target: PRKACB (human) (UniProt P22694)
[29] = molecular target: PRKD3 (human) (UniProt O94806)
[30] = molecular target: RPS6KA1 KD2 (human) (UniProt Q15418)
[31] = molecular target: RPS6KA2 KD2 (human) (UniProt Q15349)
[32] = molecular target: SGK110 (human) (UniProt P0C264)
[33] = molecular target: SIK2 (human) (UniProt Q9H0K1)
[34] = molecular target: STK16 (human) (UniProt O75716)
[35] = molecular target: STK17A (human) (UniProt Q9UEE5)
[36] = molecular target: TESK1 (human) (UniProt Q15569)
[37] = molecular target: TNNI3K (human) (UniProt Q59H18)
[38] = molecular target: ULK1 (human) (UniProt O75385)
[39] = molecular target: ULK2 (human) (UniProt Q8IYT8)
[40] = molecular target: WEE2 (human) (UniProt P0C1S8)
Chain of WEE2 (human) (P0C1S8 whole entry, looked up): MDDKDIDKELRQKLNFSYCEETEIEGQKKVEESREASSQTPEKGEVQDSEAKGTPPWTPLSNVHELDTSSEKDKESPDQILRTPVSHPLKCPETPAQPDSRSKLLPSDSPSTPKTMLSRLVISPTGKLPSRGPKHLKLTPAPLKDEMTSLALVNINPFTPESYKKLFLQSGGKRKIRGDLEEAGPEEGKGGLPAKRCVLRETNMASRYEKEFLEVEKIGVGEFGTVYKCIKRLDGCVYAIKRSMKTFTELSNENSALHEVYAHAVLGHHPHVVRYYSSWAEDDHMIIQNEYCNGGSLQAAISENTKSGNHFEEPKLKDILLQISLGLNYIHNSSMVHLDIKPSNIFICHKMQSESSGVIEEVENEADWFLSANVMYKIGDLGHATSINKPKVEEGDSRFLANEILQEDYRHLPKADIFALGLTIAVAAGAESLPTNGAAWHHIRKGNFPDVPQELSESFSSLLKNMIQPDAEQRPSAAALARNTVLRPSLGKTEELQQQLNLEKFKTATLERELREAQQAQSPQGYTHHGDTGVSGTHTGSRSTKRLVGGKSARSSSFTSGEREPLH

Chain of CSNK1E (human) (P49674 whole entry, looked up): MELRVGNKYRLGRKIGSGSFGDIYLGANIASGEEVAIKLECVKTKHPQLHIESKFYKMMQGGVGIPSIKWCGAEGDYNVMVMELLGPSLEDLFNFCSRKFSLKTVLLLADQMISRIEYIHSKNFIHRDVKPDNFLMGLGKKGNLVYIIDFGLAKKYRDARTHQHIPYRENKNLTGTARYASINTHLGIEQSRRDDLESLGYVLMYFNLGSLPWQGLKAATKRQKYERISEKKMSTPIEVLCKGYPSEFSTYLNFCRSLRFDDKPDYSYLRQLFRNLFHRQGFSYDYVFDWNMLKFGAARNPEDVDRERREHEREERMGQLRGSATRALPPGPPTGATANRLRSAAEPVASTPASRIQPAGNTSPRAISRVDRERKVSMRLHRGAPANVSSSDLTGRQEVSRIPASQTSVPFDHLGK
Chain of PRKAA2 (human) (P54646 whole entry, looked up): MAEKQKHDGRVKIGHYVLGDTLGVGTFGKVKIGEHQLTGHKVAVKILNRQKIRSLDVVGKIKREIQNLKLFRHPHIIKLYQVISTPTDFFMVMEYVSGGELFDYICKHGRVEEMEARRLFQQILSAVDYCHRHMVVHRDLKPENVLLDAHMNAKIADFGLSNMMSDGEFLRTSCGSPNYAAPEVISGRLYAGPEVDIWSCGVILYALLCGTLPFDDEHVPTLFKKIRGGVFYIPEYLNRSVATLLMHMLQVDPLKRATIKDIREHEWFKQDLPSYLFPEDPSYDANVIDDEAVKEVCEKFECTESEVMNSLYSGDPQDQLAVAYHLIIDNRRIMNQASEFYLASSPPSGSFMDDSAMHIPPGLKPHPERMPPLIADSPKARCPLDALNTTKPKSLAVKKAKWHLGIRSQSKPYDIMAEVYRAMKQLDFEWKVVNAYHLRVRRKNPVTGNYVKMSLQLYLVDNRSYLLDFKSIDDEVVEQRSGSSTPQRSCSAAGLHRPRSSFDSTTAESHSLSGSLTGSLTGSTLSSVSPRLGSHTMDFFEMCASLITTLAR
Chain of DCLK1 (human) (O15075 whole entry, looked up): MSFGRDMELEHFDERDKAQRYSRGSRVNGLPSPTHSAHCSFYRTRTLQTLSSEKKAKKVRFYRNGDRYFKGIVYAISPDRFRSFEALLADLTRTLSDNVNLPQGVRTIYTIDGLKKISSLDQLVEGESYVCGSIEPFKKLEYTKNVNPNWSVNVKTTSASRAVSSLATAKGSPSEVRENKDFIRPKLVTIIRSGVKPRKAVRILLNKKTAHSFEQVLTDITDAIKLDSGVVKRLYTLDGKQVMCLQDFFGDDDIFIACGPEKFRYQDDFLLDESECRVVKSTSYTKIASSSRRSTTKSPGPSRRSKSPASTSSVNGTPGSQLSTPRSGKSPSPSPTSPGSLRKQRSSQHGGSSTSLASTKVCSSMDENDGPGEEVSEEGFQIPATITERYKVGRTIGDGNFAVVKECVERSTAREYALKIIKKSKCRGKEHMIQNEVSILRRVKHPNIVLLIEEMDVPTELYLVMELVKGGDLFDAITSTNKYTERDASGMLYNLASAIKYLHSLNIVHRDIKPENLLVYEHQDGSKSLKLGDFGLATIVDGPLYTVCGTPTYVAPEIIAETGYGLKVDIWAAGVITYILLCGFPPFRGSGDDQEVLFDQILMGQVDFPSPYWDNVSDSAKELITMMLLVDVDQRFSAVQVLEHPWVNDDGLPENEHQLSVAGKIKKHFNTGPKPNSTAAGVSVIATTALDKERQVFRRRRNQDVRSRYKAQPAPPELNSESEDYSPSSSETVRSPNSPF
Chain of PLK3 (human) (Q9H4B4 whole entry, looked up): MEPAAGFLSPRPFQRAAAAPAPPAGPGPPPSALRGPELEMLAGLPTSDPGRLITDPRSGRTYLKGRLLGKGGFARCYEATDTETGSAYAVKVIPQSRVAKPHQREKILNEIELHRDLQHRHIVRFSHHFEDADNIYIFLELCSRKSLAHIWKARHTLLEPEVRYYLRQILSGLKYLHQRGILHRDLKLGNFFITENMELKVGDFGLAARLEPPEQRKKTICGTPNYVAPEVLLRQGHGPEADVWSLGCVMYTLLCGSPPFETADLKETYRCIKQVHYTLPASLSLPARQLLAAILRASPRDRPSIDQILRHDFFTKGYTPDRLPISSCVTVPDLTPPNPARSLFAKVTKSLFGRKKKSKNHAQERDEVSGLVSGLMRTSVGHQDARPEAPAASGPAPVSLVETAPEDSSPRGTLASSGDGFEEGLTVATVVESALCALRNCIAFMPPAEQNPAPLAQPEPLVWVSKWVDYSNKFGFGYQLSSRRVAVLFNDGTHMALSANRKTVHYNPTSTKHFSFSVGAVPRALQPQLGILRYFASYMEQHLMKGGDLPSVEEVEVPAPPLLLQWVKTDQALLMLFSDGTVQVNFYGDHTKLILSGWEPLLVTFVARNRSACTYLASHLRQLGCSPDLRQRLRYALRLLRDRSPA
Chain of SGK110 (human) (P0C264 whole entry, looked up): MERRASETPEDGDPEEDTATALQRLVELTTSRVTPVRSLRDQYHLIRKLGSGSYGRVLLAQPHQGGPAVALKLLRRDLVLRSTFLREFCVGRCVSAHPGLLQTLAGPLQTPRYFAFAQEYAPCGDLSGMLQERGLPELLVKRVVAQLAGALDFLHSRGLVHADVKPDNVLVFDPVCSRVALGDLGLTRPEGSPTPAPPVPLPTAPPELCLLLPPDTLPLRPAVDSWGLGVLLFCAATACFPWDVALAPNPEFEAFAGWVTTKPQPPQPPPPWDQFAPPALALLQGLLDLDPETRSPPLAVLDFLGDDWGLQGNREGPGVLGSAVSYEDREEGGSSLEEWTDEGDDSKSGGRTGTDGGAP
Chain of RPS6KA1 KD2 (human) (Q15418 whole entry, looked up): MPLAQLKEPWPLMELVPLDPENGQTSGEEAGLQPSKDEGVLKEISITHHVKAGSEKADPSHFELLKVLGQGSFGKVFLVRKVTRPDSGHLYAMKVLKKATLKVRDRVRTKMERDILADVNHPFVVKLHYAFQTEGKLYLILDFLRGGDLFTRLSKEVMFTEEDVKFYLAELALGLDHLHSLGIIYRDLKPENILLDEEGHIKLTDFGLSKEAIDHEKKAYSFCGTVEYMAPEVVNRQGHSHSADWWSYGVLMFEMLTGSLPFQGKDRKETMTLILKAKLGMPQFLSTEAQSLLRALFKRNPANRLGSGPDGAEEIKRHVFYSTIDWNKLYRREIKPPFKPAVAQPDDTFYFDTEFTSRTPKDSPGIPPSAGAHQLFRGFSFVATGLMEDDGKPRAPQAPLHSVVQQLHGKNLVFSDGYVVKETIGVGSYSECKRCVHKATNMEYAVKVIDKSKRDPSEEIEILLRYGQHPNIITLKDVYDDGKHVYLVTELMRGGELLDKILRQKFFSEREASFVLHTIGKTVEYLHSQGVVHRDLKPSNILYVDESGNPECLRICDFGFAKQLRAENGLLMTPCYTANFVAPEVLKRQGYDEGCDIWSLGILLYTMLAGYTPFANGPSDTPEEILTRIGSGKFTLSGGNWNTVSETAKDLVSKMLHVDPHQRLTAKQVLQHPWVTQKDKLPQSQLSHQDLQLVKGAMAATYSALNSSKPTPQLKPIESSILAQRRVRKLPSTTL
Chain of AURKA (human) (O14965 whole entry, looked up): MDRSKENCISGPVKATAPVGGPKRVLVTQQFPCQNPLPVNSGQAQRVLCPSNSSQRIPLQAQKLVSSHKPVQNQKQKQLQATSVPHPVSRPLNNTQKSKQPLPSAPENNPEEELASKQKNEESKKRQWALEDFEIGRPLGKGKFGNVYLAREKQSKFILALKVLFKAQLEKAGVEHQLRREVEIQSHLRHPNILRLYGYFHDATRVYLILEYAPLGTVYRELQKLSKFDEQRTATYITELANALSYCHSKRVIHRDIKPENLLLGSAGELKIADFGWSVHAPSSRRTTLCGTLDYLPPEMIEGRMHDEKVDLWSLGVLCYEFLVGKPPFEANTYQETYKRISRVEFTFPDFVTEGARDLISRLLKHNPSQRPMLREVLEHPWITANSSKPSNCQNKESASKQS
Chain of MAPK8 (human) (P45983 whole entry, looked up): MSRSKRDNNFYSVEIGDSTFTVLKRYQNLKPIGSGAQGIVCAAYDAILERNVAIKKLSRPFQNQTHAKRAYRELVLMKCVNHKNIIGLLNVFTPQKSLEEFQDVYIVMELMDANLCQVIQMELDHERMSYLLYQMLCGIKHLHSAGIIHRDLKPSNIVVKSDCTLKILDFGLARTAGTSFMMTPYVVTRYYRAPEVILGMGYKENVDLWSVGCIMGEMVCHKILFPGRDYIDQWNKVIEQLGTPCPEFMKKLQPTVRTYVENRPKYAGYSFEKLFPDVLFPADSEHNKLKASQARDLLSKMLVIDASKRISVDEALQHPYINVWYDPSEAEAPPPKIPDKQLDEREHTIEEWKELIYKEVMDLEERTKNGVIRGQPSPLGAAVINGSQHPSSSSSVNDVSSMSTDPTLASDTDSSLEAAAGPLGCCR

Compound | kinase still bound, per cent of control [1] [%] | kinase still bound, per cent of control [2] [%] | kinase still bound, per cent of control [3] [%] | kinase still bound, per cent of control [4] [%] | kinase still bound, per cent of control [5] [%] | kinase still bound, per cent of control [6] [%] | kinase still bound, per cent of control [7] [%] | kinase still bound, per cent of control [8] [%] | kinase still bound, per cent of control [9] [%] | kinase still bound, per cent of control [10] [%] | kinase still bound, per cent of control [11] [%] | kinase still bound, per cent of control [12] [%] | kinase still bound, per cent of control [13] [%] | kinase still bound, per cent of control [14] [%] | kinase still bound, per cent of control [15] [%] | kinase still bound, per cent of control [16] [%] | kinase still bound, per cent of control [17] [%] | kinase still bound, per cent of control [18] [%] | kinase still bound, per cent of control [19] [%] | kinase still bound, per cent of control [20] [%] | also measured
CN(C)C/C=C/C(=O)Nc1cccc(Nc2ncc3c(n2)N(C)c2ccccc2C(=O)N3C)c1 | 53 | 100 | 0.65 | 95 | 9.6 | 50 | 82 | 75 | 4 | 11 | 82 | 43 | 90 | 65 | 100 | 13 | 100 | 54 | 13 | 0.1 | kinase still bound, per cent of control [21]: 91%; kinase still bound, per cent of control [22]: 0.3%; kinase still bound, per cent of control [23]: 93%; kinase still bound, per cent of control [24]: 100%; kinase still bound, per cent of control [25]: 86%; kinase still bound, per cent of control [26]: 72%; kinase still bound, per cent of control [27]: 1.4%; kinase still bound, per cent of control [28]: 100%; kinase still bound, per cent of control [29]: 19%; kinase still bound, per cent of control [30]: 39%; kinase still bound, per cent of control [31]: 21%; kinase still bound, per cent of control [32]: 0.25%; kinase still bound, per cent of control [33]: 9%; kinase still bound, per cent of control [34]: 8.4%; kinase still bound, per cent of control [35]: 97%; kinase still bound, per cent of control [36]: 100%; kinase still bound, per cent of control [37]: 28%; kinase still bound, per cent of control [38]: 0.15%; kinase still bound, per cent of control [39]: 0.2%; kinase still bound, per cent of control [40]: 97%
COc1cc(C(=O)NC2CCN(C)CC2)ccc1Nc1ncc2c(n1)N(C1CCCC1)C(C)CC(=O)N2C (stereo not given) | 100 | 100 | 100 | 100 | 100 | 18 | 100 | 100 | 4 | 100 | 100 | 100 | 100 | 100 | 31 | 100 | 100 | 100 | 100 | 100 | kinase still bound, per cent of control [21]: 100%; kinase still bound, per cent of control [22]: 100%; kinase still bound, per cent of control [23]: 100%; kinase still bound, per cent of control [24]: 100%; kinase still bound, per cent of control [25]: 100%; kinase still bound, per cent of control [26]: 0%; kinase still bound, per cent of control [27]: 100%; kinase still bound, per cent of control [28]: 100%; kinase still bound, per cent of control [29]: 32%; kinase still bound, per cent of control [30]: 22%; kinase still bound, per cent of control [31]: 5.8%; kinase still bound, per cent of control [32]: 100%; kinase still bound, per cent of control [33]: 100%; kinase still bound, per cent of control [34]: 100%; kinase still bound, per cent of control [35]: 100%; kinase still bound, per cent of control [36]: 100%; kinase still bound, per cent of control [37]: 100%; kinase still bound, per cent of control [38]: 100%; kinase still bound, per cent of control [39]: 100%; kinase still bound, per cent of control [40]: 100%
